Laboratory results as given in PubChem BioAssay AID1963965 (Molecular Pharmacology Branch, DTP, NCI, 2024).

System: 996289-038-R-J1-PDC spheroid viability
Experiment: Anticancer human tumor 996289-038-R-J1-PDC patient-derived colon adenocarcinoma cell line growth inhibition [PI3K]
Settings: spheroids with HUVEC and MSC; for IC50: curve of first compound; for viability, T/C: stronger effect = lower value; active = viability on the fitted dose curve at most 10% of control; inactive = the rest
In short: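 High-throughput combination screen: PI3K inhibitors crossed with targeted small molecules on complex spheroids of tumor cells, HUVEC and MSCs at 37 degrees C, 5% CO2. Top concentration was at or near clinical Cmax (otherwise 10 microM), with half-log decrements.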

[1] = second compound 0.0316 µM, first compound 0.0316 µM
[2] = second compound 0.0316 µM, first compound 0.1 µM
[3] = second compound 0.0316 µM, first compound 0.316 µM
[4] = second compound 0.0316 µM, first compound 1 µM
[5] = second compound 0.0316 µM, first compound 3.16 µM
[6] = second compound 0.0316 µM, first compound 10 µM
[7] = second compound 0.1 µM, first compound 0.0316 µM
[8] = second compound 0.1 µM, first compound 0.1 µM
[9] = second compound 0.1 µM, first compound 0.316 µM
[10] = second compound 0.1 µM, first compound 1 µM
[11] = second compound 0.1 µM, first compound 3.16 µM
[12] = second compound 0.1 µM, first compound 10 µM
[13] = second compound 0.316 µM, first compound 0.0316 µM
[14] = second compound 0.316 µM, first compound 0.1 µM
[15] = second compound 0.316 µM, first compound 0.316 µM
[16] = second compound 0.316 µM, first compound 1 µM
[17] = second compound 0.316 µM, first compound 3.16 µM
[18] = second compound 0.316 µM, first compound 10 µM
[19] = second compound 1 µM, first compound 0.0316 µM
[20] = second compound 1 µM, first compound 0.1 µM
[21] = second compound 1 µM, first compound 0.316 µM
[22] = second compound 1 µM, first compound 1 µM
[23] = second compound 1 µM, first compound 3.16 µM
[24] = second compound 1 µM, first compound 10 µM
[25] = second compound 3.16 µM, first compound 0.0316 µM
[26] = second compound 3.16 µM, first compound 0.1 µM
[27] = second compound 3.16 µM, first compound 0.316 µM
[28] = second compound 3.16 µM, first compound 1 µM
[29] = second compound 3.16 µM, first compound 3.16 µM
[30] = second compound 3.16 µM, first compound 10 µM
[31] = second compound 10 µM, first compound 0.0316 µM
[32] = second compound 10 µM, first compound 0.1 µM
[33] = second compound 10 µM, first compound 0.316 µM
[34] = second compound 10 µM, first compound 1 µM
[35] = second compound 10 µM, first compound 3.16 µM
[36] = second compound 10 µM, first compound 10 µM
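Note: spheroids exposed to compounds for seven days before viability read.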
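Throughout, for viability, T/C: luminescence used as a proxy for viable cell amount; percent viability relative to DMSO vehicle control as 100%.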

CC1(C)CCC(Nc2ncc(C(F)(F)F)c(-c3c[nH]c4c(P(C)(C)=O)c(C#N)ccc34)n2)CN1 (stereo unspecified) + CC(Nc1ncnc2nc[nH]c12)c1cc2cccc(Cl)c2c(=O)n1-c1ccccc1
5.94 µM: IC50 (second compound 0.316 µM)
4.66 µM: IC50 (second compound 10 µM)
inactive: viability, T/C [1] 95.8% | viability, T/C [2] 84.5% | viability, T/C [3] 85.2% | viability, T/C [4] 77.9% | viability, T/C [5] 84% | viability, T/C [6] 25% | viability, T/C [7] 88.9% | viability, T/C [8] 87.3% | viability, T/C [9] 77.9% | viability, T/C [10] 75.4% | viability, T/C [11] 78.1% | viability, T/C [12] 20.1% | viability, T/C [13] 95.7% | viability, T/C [14] 83.8% | viability, T/C [15] 85.8% | viability, T/C [16] 77.9% | viability, T/C [17] 87.8% | viability, T/C [18] 19.9% | viability, T/C [19] 88.6% | viability, T/C [20] 86.1% | viability, T/C [21] 72.8% | viability, T/C [22] 72.3% | viability, T/C [23] 80.3% | viability, T/C [24] 16% | viability, T/C [25] 82.6% | viability, T/C [26] 81.3% | viability, T/C [27] 74.2% | viability, T/C [28] 74.4% | viability, T/C [29] 79.2% | viability, T/C [30] 14.2% | viability, T/C [31] 90.9% | viability, T/C [32] 74.5% | viability, T/C [33] 58.3% | viability, T/C [34] 70.3% | viability, T/C [35] 69.8% | viability, T/C [36] 10.9%
5.51 µM: IC50 (second compound 0.1 µM)
5.26 µM: IC50 (second compound 3.16 µM)
5.43 µM: IC50 (second compound 1 µM)
6.14 µM: IC50 (second compound 0.0316 µM)

CNC(=O)c1ccc(N2C(=S)N(c3ccc(C#N)c(C(F)(F)F)c3)C(=O)C2(C)C)cc1F + Cc1nc(NC(=O)N2CCCC2C(N)=O)sc1-c1ccnc(C(C)(C)C(F)(F)F)c1
< 0.0316 µM: IC50 (second compound 10 µM)
> 10 µM: IC50 (second compound 0.0316 µM) | IC50 (second compound 0.1 µM) | IC50 (second compound 0.316 µM) | IC50 (second compound 1 µM) | IC50 (second compound 3.16 µM)
inactive: viability, T/C [1] 92% | viability, T/C [2] 95.8% | viability, T/C [3] 92.2% | viability, T/C [4] 92.3% | viability, T/C [5] 93.8% | viability, T/C [6] 90.4% | viability, T/C [7] 92.9% | viability, T/C [8] 82.7% | viability, T/C [9] 97.2% | viability, T/C [10] 83.3% | viability, T/C [11] 95.2% | viability, T/C [12] 90.3% | viability, T/C [13] 90.9% | viability, T/C [14] 81% | viability, T/C [15] 88.4% | viability, T/C [16] 84.8% | viability, T/C [17] 73.9% | viability, T/C [18] 96.5% | viability, T/C [19] 75.6% | viability, T/C [20] 76.9% | viability, T/C [21] 69.7% | viability, T/C [22] 79.9% | viability, T/C [23] 80.7% | viability, T/C [24] 70.8% | viability, T/C [25] 65.5% | viability, T/C [26] 64.7% | viability, T/C [27] 58.9% | viability, T/C [28] 52.4% | viability, T/C [29] 61.5% | viability, T/C [30] 51.3% | viability, T/C [31] 39.9% | viability, T/C [32] 46.9% | viability, T/C [33] 49.6% | viability, T/C [34] 38.9% | viability, T/C [35] 48.3% | viability, T/C [36] 36.8%

CC(=O)c1c(C)c2cnc(Nc3ccc(N4CCNCC4)cn3)nc2n(C2CCCC2)c1=O + Cc1nc(NC(=O)N2CCCC2C(N)=O)sc1-c1ccnc(C(C)(C)C(F)(F)F)c1
inactive: viability, T/C (second compound 0.0316 µM, first compound 0.000316 µM) 99.8% | viability, T/C (second compound 0.0316 µM, first compound 0.001 µM) 83.4% | viability, T/C (second compound 0.0316 µM, first compound 0.00316 µM) 89.9% | viability, T/C (second compound 0.0316 µM, first compound 0.01 µM) 86.4% | viability, T/C [1] 110% | viability, T/C [2] 99.8% | viability, T/C (second compound 0.1 µM, first compound 0.000316 µM) 111% | viability, T/C (second compound 0.1 µM, first compound 0.001 µM) 88.9% | viability, T/C (second compound 0.1 µM, first compound 0.00316 µM) 107% | viability, T/C (second compound 0.1 µM, first compound 0.01 µM) 91.7% | viability, T/C [7] 94.7% | viability, T/C [8] 81.6% | viability, T/C (second compound 0.316 µM, first compound 0.000316 µM) 81.5% | viability, T/C (second compound 0.316 µM, first compound 0.001 µM) 78.1% | viability, T/C (second compound 0.316 µM, first compound 0.00316 µM) 80% | viability, T/C (second compound 0.316 µM, first compound 0.01 µM) 80.2% | viability, T/C [13] 86.4% | viability, T/C [14] 77.7% | viability, T/C (second compound 1 µM, first compound 0.000316 µM) 77.7% | viability, T/C (second compound 1 µM, first compound 0.001 µM) 74.5% | viability, T/C (second compound 1 µM, first compound 0.00316 µM) 69.2% | viability, T/C (second compound 1 µM, first compound 0.01 µM) 69.7% | viability, T/C [19] 85.2% | viability, T/C [20] 66.7% | viability, T/C (second compound 3.16 µM, first compound 0.000316 µM) 60.1% | viability, T/C (second compound 3.16 µM, first compound 0.001 µM) 57.9% | viability, T/C (second compound 3.16 µM, first compound 0.00316 µM) 62.7% | viability, T/C (second compound 3.16 µM, first compound 0.01 µM) 61.7% | viability, T/C [25] 57.9% | viability, T/C [26] 48% | viability, T/C (second compound 10 µM, first compound 0.000316 µM) 45.4% | viability, T/C (second compound 10 µM, first compound 0.001 µM) 40.6% | viability, T/C (second compound 10 µM, first compound 0.00316 µM) 36.6% | viability, T/C (second compound 10 µM, first compound 0.01 µM) 39.9% | viability, T/C [31] 47.4% | viability, T/C [32] 36.8%
< 0.000316 µM: IC50 (second compound 10 µM)
> 0.1 µM: IC50 (second compound 0.0316 µM) | IC50 (second compound 0.1 µM) | IC50 (second compound 0.316 µM) | IC50 (second compound 1 µM) | IC50 (second compound 3.16 µM)
